In ChEMBL document CHEMBL3132858, “6-Alkyl-, 6-aryl- or 6-hetaryl-7-deazapurine ribonucleosides as inhibitors of human or MTB adenosine kinase and potential antimycobacterial agents” (Medchemcomm, 2013) one finds IC50, CC50 and Activity data, which are given here for 31 molecules.

Calls of active or inactive are those of the source. The rule behind the calls is not given here.

Data set [1] has as its target Adenosine kinase (Mycobacterium tuberculosis (strain CDC 1551 / Oshkosh), UniProt P9WID4). Description: Inhibition of Mycobacterium tuberculosis ADK using [3H]-adenosine by scintillation counting method.
The nature of data set [2]: Cytotoxicity against human BJ cells after 72 hrs by MTT assay. The class given is cell-based. Background: Tetrazolium assays rely on reduction of a dye to a coloured formazan, in cell work by metabolically active cells.
Data set [3] can be described thus: Cytotoxicity against human MRC5 cells after 72 hrs by MTT assay. The data set is classed as cell-based.
For data set [4], the target named is T1, Adenosine kinase (Homo sapiens, UniProt P55263). Kind of data set: Inhibition of human ADK using [3H]-adenosine by scintillation counting method.
Target sequence in this assay (P55263 whole entry): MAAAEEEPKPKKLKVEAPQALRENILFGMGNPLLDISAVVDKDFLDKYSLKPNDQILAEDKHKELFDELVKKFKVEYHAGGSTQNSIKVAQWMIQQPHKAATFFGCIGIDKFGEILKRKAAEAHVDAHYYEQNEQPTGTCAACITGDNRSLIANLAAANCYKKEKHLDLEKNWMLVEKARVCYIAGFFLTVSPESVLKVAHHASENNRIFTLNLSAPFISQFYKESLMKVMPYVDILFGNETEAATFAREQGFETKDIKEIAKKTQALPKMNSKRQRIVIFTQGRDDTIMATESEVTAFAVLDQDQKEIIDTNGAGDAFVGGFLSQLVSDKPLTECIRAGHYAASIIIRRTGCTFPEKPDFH
Data set [5] concerns the target Adenosine kinase (Mycobacterium tuberculosis (strain CDC 1551 / Oshkosh)) (UniProt P9WID4). Description: Activity of Mycobacterium tuberculosis ADK assessed as compound conversion to 5'-phosphate form incubated at 37 degC for 20 mins by HPLC method.
Data set [6] deals with T1, Adenosine kinase. Kind of data set: Activity of human ADK assessed as compound conversion to 5'-phosphate form incubated at 37 degC for 20 mins by HPLC method. Set-up: concentration or dose not given beside the values.
Target sequence in this assay (P55263 2-362 limits assumed): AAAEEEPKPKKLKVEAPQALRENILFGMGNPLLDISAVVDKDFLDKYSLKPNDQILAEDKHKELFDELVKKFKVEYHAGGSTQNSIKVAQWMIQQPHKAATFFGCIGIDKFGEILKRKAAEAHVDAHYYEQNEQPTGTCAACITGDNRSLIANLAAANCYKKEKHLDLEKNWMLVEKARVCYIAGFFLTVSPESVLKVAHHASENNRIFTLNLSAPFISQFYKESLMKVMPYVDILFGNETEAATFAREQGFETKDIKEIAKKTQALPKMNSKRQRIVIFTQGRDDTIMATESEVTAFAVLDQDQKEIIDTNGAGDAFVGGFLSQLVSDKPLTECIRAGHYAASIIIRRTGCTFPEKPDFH

Chain of Adenosine kinase (Mycobacterium tuberculosis (strain CDC 1551 / Oshkosh), UniProt P9WID4) (P9WID4 whole entry): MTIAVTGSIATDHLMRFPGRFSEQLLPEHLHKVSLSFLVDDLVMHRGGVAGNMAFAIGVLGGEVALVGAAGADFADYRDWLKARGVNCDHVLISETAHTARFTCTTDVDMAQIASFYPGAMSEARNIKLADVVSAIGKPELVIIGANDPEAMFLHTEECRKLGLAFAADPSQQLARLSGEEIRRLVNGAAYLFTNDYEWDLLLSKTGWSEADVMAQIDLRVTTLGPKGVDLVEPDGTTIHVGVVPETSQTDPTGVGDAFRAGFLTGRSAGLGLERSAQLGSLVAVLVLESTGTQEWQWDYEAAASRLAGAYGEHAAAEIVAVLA
Chain of Adenosine kinase (Mycobacterium tuberculosis (strain CDC 1551 / Oshkosh)) (P9WID4 2-324 limits assumed): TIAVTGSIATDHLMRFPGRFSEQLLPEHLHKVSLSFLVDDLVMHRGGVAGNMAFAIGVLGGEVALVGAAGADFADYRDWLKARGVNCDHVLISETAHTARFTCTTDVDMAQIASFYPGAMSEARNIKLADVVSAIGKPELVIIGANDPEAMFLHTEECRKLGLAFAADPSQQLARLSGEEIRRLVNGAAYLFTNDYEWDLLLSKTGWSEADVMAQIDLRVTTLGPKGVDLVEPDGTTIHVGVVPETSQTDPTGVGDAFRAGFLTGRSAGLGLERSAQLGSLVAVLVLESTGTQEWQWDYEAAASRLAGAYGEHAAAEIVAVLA

In the case of `OC[C@H]1O[C@@H](n2ccc3c(Cc4ccccc4)ncnc32)[C@H](O)[C@@H]1O`, the IC50 at Adenosine kinase [1] and at Adenosine kinase [4] was greater than 20 µM each time. The CC50 at 72 h in data set [2] is 36.9 µM; in data set [3] it was greater than 50 µM. In data set [5], the result was inactive.

On to `OC[C@H]1O[C@@H](n2ccc3c(-c4cccc5c4sc4ccccc45)ncnc32)[C@H](O)[C@@H]1O`, for which the IC50 was found to be 0.15 µM against Adenosine kinase [1] and 15.4 µM against Adenosine kinase [4]. In addition, the CC50 at 72 h is greater than 50 µM in data set [2] and 43.8 µM in data set [3]. Besides, the outcome in data set [5] was inactive.

On to `OC[C@H]1O[C@@H](n2ccc3c(-c4c[nH]cn4)ncnc32)[C@H](O)[C@@H]1O`, for which the IC50 against Adenosine kinase [1] is 0.78 µM; at Adenosine kinase [4], greater than 10 µM. Moreover, the CC50 at 72 h in data set [2] is 0.21 µM; in data set [3], greater than 50 µM. For the same molecule, on Adenosine kinase [6], the Activity was determined as 28%. The result in data set [5] was inactive.

Regarding `CCCCCCCCCCCCCCCCCCOP(=O)(O)OC[C@H]1O[C@@H](n2ccc3c(-c4cccs4)ncnc32)[C@H](O)[C@@H]1O`, the IC50 is greater than 20 µM at Adenosine kinase [1] and 1.97 µM at Adenosine kinase [4]. Further, in data set [5], the outcome was inactive.

As for `OC[C@H]1O[C@@H](n2ccc3c(-c4ccccc4)ncnc32)[C@H](O)[C@@H]1O`, the values for the IC50 at Adenosine kinase [1] and against Adenosine kinase [4] were 0.12 µM and greater than 10 µM, respectively. The CC50 at 72 h in data set [2] is 44.1 µM; in data set [3], greater than 50 µM. Further, the result in data set [5] was inactive.

Take `OC[C@H]1O[C@@H](n2ccc3c(-c4cccs4)ncnc32)[C@H](O)[C@@H]1O`: the IC50 against Adenosine kinase [1] was 0.046 µM; at Adenosine kinase [4], greater than 5 µM. For the same molecule, the figures for the CC50 at 72 h in data set [2] and in data set [3] were 0.31 µM and greater than 50 µM, respectively. In addition, the outcome in data set [5] was inactive.

`OC[C@H]1O[C@@H](n2ccc3c(-c4ccsc4)ncnc32)[C@H](O)[C@@H]1O`: the IC50 at Adenosine kinase [1] is 0.195 µM; against Adenosine kinase [4], greater than 10 µM. For the same molecule, the figures for the CC50 at 72 h in data set [2] and in data set [3] were 21.3 µM and greater than 50 µM, respectively. The Activity at Adenosine kinase [6] is 56%. The result in data set [5] was inactive.

Consider `OC[C@H]1O[C@@H](n2ccc3c(-c4nccs4)ncnc32)[C@H](O)[C@@H]1O`, for which the IC50 against Adenosine kinase [1] was 0.023 µM; at Adenosine kinase [4], greater than 20 µM. Also, the values for the CC50 at 72 h in data set [2] and in data set [3] were 0.26 µM and 37 µM, respectively. Also, at Adenosine kinase [6], the Activity came out at 41%. For the same molecule, in data set [5], the result was inactive.

Turning to `OC[C@H]1O[C@@H](n2cc(Cl)c3c(-c4ccsc4)ncnc32)[C@H](O)[C@@H]1O`, the values for the IC50 against Adenosine kinase [1] and against Adenosine kinase [4] were 0.25 µM and greater than 10 µM, respectively. Also, the results for the CC50 at 72 h in data set [2] and in data set [3] were 1.72 µM and greater than 50 µM, respectively. Moreover, at Adenosine kinase [6], the Activity was 97%. Further, the result in data set [5] was inactive.

Take `OC[C@H]1O[C@@H](n2cc(Cl)c3c(-c4ccccc4)ncnc32)[C@H](O)[C@@H]1O`: the IC50 was 0.22 µM at Adenosine kinase [1] and greater than 10 µM on Adenosine kinase [4]. Besides, the CC50 at 72 h is 44.5 µM in data set [2] and greater than 50 µM in data set [3]. At Adenosine kinase [6], the Activity was 29%. The result in data set [5] was inactive.

In the case of `OC[C@H]1O[C@@H](n2ccc3c(-c4ccn[nH]4)ncnc32)[C@H](O)[C@@H]1O`, the IC50 at Adenosine kinase [1] is 0.059 µM; against Adenosine kinase [4] it was greater than 20 µM. The results for the 50% cytotoxic concentration (CC50) at 72 h in data set [2] and in data set [3] were 43.9 µM and 1.16 µM, respectively. Further, on Adenosine kinase [6], the Activity is 31%. Besides, in data set [5], the outcome was inactive.

Consider `OC[C@H]1O[C@@H](n2ccc3c(-c4ccccn4)ncnc32)[C@H](O)[C@@H]1O`, for which the results for the IC50 against Adenosine kinase [1] and on Adenosine kinase [4] were 0.12 µM and greater than 10 µM, respectively. For the same molecule, the half-maximal cytotoxic concentration (CC50) at 72 h in data set [2] is 1.74 µM; in data set [3], greater than 50 µM. For the same molecule, the Activity at Adenosine kinase [6] was 39%. Further, the outcome in data set [5] was inactive.

On to `CCCCCCCCCCCCCCCCCCOP(=O)(O)OC[C@H]1O[C@@H](n2ccc3c(-c4ccoc4)ncnc32)[C@H](O)[C@@H]1O`, for which the IC50 was greater than 20 µM on Adenosine kinase [1] and 5.15 µM at Adenosine kinase [4]. For the same molecule, the half-maximal cytotoxic concentration (CC50) at 72 h was 44.2 µM in data set [2] and greater than 50 µM in data set [3]. Further, in data set [5], the outcome was inactive.

On to `OC[C@H]1O[C@@H](n2cc(F)c3c(-c4ccc[nH]4)ncnc32)[C@H](O)[C@@H]1O`, for which the IC50 against Adenosine kinase [1] was 0.07 µM; against Adenosine kinase [4], greater than 10 µM. The values for the CC50 at 72 h in data set [2] and in data set [3] were 2.99 µM and 44.5 µM, respectively. Moreover, on Adenosine kinase [6], the Activity was 76%. Further, in data set [5], the outcome was inactive.

With `Cc1ncnc2c1ccn2[C@@H]1O[C@H](CO)[C@@H](O)[C@H]1O`, the IC50 at Adenosine kinase [1] was 8.8 µM; against Adenosine kinase [4], greater than 10 µM. The CC50 at 72 h is 0.098 µM in data set [2] and 0.081 µM in data set [3]. Besides, the Activity on Adenosine kinase [6] turned out to be 54%. Also, the outcome in data set [5] was inactive.

For the molecule `OC[C@H]1O[C@@H](n2cc(F)c3c(-c4ccco4)ncnc32)[C@H](O)[C@@H]1O`, the IC50 against Adenosine kinase [1] was 0.19 µM; at Adenosine kinase [4] it was 1.3 µM. The CC50 at 72 h was determined as 0.31 µM in data set [2] and 29 µM in data set [3]. The Activity at Adenosine kinase [6] was found to be 50%. The result in data set [5] was inactive.

As for `OC[C@H]1O[C@@H](n2cc(Cl)c3c(-c4cccs4)ncnc32)[C@H](O)[C@@H]1O`, the IC50 at Adenosine kinase [1] came to 0.07 µM; against Adenosine kinase [4], 1.2 µM. The CC50 at 72 h in data set [2] was 4.97 µM; in data set [3] it was greater than 50 µM. For the same molecule, the Activity on Adenosine kinase [6] came out at 100%. For the same molecule, the result in data set [5] was inactive.

With `OC[C@H]1O[C@@H](n2ccc3c(-c4cccnc4)ncnc32)[C@H](O)[C@@H]1O`, the IC50 at Adenosine kinase [1] was 1 µM; against Adenosine kinase [4], greater than 10 µM. The CC50 at 72 h was 50 µM in data set [2] and greater than 50 µM in data set [3]. Besides, the result in data set [5] was inactive.

As to `CCCCCCCCCCCCCCCCCCOP(=O)(O)OC[C@H]1O[C@@H](n2ccc3c(-c4cc5ccccc5o4)ncnc32)[C@H](O)[C@@H]1O`, the IC50 at Adenosine kinase [1] is greater than 20 µM; at Adenosine kinase [4], 2.9 µM. Besides, the CC50 at 72 h in data set [2] and in data set [3] was greater than 50 µM in each case. For the same molecule, the result in data set [5] was inactive.

With `OC[C@H]1O[C@@H](n2cc(Cl)c3c(-c4ccc(F)cc4)ncnc32)[C@H](O)[C@@H]1O`, the half-inhibitory concentration (IC50) at Adenosine kinase [1] was 0.4 µM; on Adenosine kinase [4], greater than 20 µM. The CC50 at 72 h in data set [2] was 49.5 µM; in data set [3], greater than 50 µM. The result in data set [5] was inactive.

Turning to `CCCCCCCCCCCCCCCCCCOP(=O)(O)OC[C@H]1O[C@@H](n2ccc3c(-c4ccccc4)ncnc32)[C@H](O)[C@@H]1O`, the IC50 on Adenosine kinase [1] was greater than 20 µM; on Adenosine kinase [4] it was 4.4 µM. For the same molecule, the CC50 at 72 h in data set [2] and in data set [3] was greater than 50 µM each time. In data set [5], the outcome was inactive.

Take `CCc1ncnc2c1ccn2[C@@H]1O[C@H](CO)[C@@H](O)[C@H]1O`: the IC50 was 8.1 µM on Adenosine kinase [1] and greater than 20 µM on Adenosine kinase [4]. The values for the CC50 at 72 h in data set [2] and in data set [3] were 2.7 µM and 50 µM, respectively. In addition, the result in data set [5] was inactive.

For the molecule `CCCCCCCCCCCCCCCCCCOP(=O)(O)OC[C@H]1O[C@@H](n2ccc3c(-c4ccco4)ncnc32)[C@H](O)[C@@H]1O`, the IC50 was greater than 20 µM on Adenosine kinase [1] and 2.4 µM on Adenosine kinase [4]. For the same molecule, the values for the CC50 at 72 h in data set [2] and in data set [3] were greater than 50 µM and 45.3 µM, respectively. The outcome in data set [5] was inactive.

For the molecule `OC[C@H]1O[C@@H](n2ccc3c(-c4cccc5c4oc4ccccc45)ncnc32)[C@H](O)[C@@H]1O`, the IC50 at Adenosine kinase [1] turned out to be 2.35 µM; on Adenosine kinase [4] it was 5.26 µM. For the same molecule, the half-maximal cytotoxic concentration (CC50) at 72 h in data set [2] and in data set [3] was greater than 50 µM throughout. The outcome in data set [5] was inactive.

For `OC[C@H]1O[C@@H](n2ccc3c(-c4cc5ccccc5[nH]4)ncnc32)[C@H](O)[C@@H]1O`, the IC50 on Adenosine kinase [1] amounted to 0.04 µM; on Adenosine kinase [4], 8.35 µM. The CC50 at 72 h in data set [2] and in data set [3] was greater than 50 µM each time. Also, the outcome in data set [5] was inactive.

Consider `OC[C@H]1O[C@@H](n2ccc3c(-c4cccc5c4Oc4ccccc4S5)ncnc32)[C@H](O)[C@@H]1O`, for which the IC50 was 1.46 µM against Adenosine kinase [1] and 3.07 µM on Adenosine kinase [4]. Moreover, the CC50 at 72 h in data set [2] and in data set [3] was greater than 50 µM throughout. Further, the result in data set [5] was inactive.

Regarding `OC[C@H]1O[C@@H](n2cc(F)c3c(-c4ccoc4)ncnc32)[C@H](O)[C@@H]1O`, the results for the IC50 at Adenosine kinase [1] and on Adenosine kinase [4] were 0.15 µM and greater than 10 µM, respectively. The CC50 at 72 h in data set [2] was 0.35 µM; in data set [3], 15.4 µM. In addition, in data set [5], the outcome was inactive.

As to `CCCCCCCCCCCCCCCCCCOP(=O)(O)OC[C@H]1O[C@@H](n2ccc3c(-c4ccsc4)ncnc32)[C@H](O)[C@@H]1O`, the IC50 was greater than 20 µM against Adenosine kinase [1] and 6.35 µM against Adenosine kinase [4]. The CC50 at 72 h in data set [2] and in data set [3] was greater than 50 µM each time. Further, in data set [5], the result was inactive.

In the case of `COc1ccc(-c2ncnc3c2ccn3[C@@H]2O[C@H](CO)[C@@H](O)[C@H]2O)cc1`, the IC50 against Adenosine kinase [1] is 0.058 µM; against Adenosine kinase [4], greater than 10 µM. In addition, the CC50 at 72 h in data set [2] and in data set [3] was greater than 50 µM each time. The result in data set [5] was inactive.

With `OC[C@H]1O[C@@H](n2ccc3c(-c4cc5ccccc5s4)ncnc32)[C@H](O)[C@@H]1O`, the figures for the IC50 against Adenosine kinase [1] and against Adenosine kinase [4] were 0.0075 µM and 0.3 µM, respectively. Further, the CC50 at 72 h in data set [2] and in data set [3] was greater than 50 µM in each case. Moreover, the result in data set [5] was inactive.

As for `OC[C@H]1O[C@@H](n2ccc3c(-c4cc5ccccc5o4)ncnc32)[C@H](O)[C@@H]1O`, the IC50 is 0.0145 µM against Adenosine kinase [1] and 2.1 µM against Adenosine kinase [4]. Besides, the CC50 at 72 h in data set [2] and in data set [3] was greater than 50 µM in each case. Further, the outcome in data set [5] was inactive.

In general, IC50 refers to the concentration at which inhibition is half-maximal. What is called CC50 is the concentration giving 50% cytotoxicity.
